In the supplement of paper PMC8967900:

Legend:
Assay in all cases: selective drug sensitivity score (sDSS, relative to normal bone marrow) (sDSS (score)); higher = more potent and effective on the cell line relative to normal bone marrow cells
Conditions in all cases: 72 h
LC4-1 = system: LC4-1
MOLT-4 = system: MOLT-4
PEER = system: PEER
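Note: ALL cell lines in 384-well plates, five doses spanning 10,000-fold, each plate scaled between vehicle and 100 µmol/L benzalkonium chloride controls, sDSS an adapted area-under-curve metric.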

SMILES | selective drug sensitivity score (LC4-1) | selective drug sensitivity score (MOLT-4) | selective drug sensitivity score (PEER)
Cc1cc(-c2nc(-c3ccc(OC(F)(F)F)cc3)no2)nn1Cc1ccnc(N2CCN(C3CC3)CC2)c1 [BAY_87-2243] (top concentration 1000 nM) | 3.84 | 25.1 | 27.4
CC(C)NC(=O)COc1cccc(-c2nc(Nc3ccc4[nH]ncc4c3)c3ccccc3n2)c1 [KD025] (top concentration 5000 nM) | 6.44 | -2.76 | -1.56
CC(C)C[C@H](NC(=O)CNC(=O)c1cc(Cl)ccc1Cl)B(O)O [Ixazomib] (top concentration 1000 nM) | 6.46 | 5.46 | 7.66
N#Cc1ccc(COC[C@H]2O[C@@H](n3c(NCc4ccc(Cl)c(Cl)c4)nc4c(N)ncnc43)[C@H](O)[C@@H]2O)cc1 (top concentration 10000 nM) | 0.32 | 5.32 | 10.7
COc1ccccc1S(=O)(=O)Nc1ccc2c(c1)CN(C)C(=O)N2 [PFI-1] (top concentration 30000 nM) | 4.2 | -0.9 | 2.4
